Where two headings read alike, the source gives them in different places.
Columns and labels:
[1] = test system: TP63 mRNA in NMC HCC2429 cells; assay: Quantitative RT-PCR of oncogenic drivers; assay type: cell-based; details: HCC2429, 6 h, 1 μΜ compound
Protocol: (§1) Total RNA was extracted from cell culture using the Maxwell RSC simply RNA Cells Kit (Promega) according to the manufacturer’s protocol. cDNA was synthesized using PrimeScript Reverse Transcriptase (TakaRa) and amplified using homemade PCR master mix. The amplicon was detected by EvaGreen Dye using a LightCycler 480 instrument (Roche). PCR conditions were 5 min at 95 °C, followed by 45 cycles of 95 °C for 10 s, 59 °C for 10 s, and 72 °C for 20 s. The relative gene expression levels were normalized to GUSB and calculated using the 2^–ΔΔC^t method.

[2] = test system: MYC mRNA in NMC HCC2429 cells; assay: Quantitative RT-PCR of oncogenic drivers; assay type: cell-based; details: HCC2429, 6 h, 1 μΜ compound
Protocol: as §1

[3] = target: BRD4 bromodomains (Homo sapiens, UniProt O60885); assay: NanoBRET target engagement assay, both bromodomains; assay type: cell-based
Protocol: The assay was performed as described previously.[17],[59] In brief, BRD4 bromodomains and full-length HDACs were obtained as plasmids cloned in-frame with a terminal NanoLuc fusion (Promega). Plasmids were transfected into HEK293T cells using FuGENE HD (Promega, E2312), and proteins were allowed to express for 20 h. Serially diluted inhibitor and the corresponding NanoBRET Tracer (Promega) at a concentration determined previously as the tracer KD, app were pipetted into white 384-well plates (Greiner #781207) for BRD assays or white 96-well plates (Corning #3600) for HDAC using an Echo acoustic dispenser (Labcyte). The corresponding protein-transfected cells were added and reseeded at a density of 2 × 10^5 cells/mL after trypsinization and resuspended in Opti-MEM without phenol red (Life Technologies). The system was allowed to equilibrate for 2 h at 37 °C/5% CO2 prior to BRET measurements. To measure BRET, NanoBRET NanoGlo substrate + Extracellular NanoLuc Inhibitor (Promega, N2540) was added as per the manufacturer’s protocol, and filtered luminescence was measured on a PHERAstar plate reader (BMG Labtech) equipped with a luminescence filter pair (450 nm BP filter (donor) and 610 nm LP filter (acceptor)). For lysed-mode NanoBRET experiments, digitonin (Promega, #G9441) was added as per the manufacturer’s instructions to a final concentration of […].

[4] = target: T1, BRD3 (2) (Homo sapiens, UniProt Q15059); assay: DSF bromodomain selectivity panel; assay type: binding; details: 10 μM compound
T1 construct: BRD3 (2); purchased in-house (SGC Frankfurt recombinant bromodomain DSF panel)
Protocol: (§2) The effects of inhibitor binding on the apparent melting temperature of recombinant bromodomains were determined by DSF in a 96-well plate (Starlab) at a protein concentration of 2 μM with 10 μΜ compound in buffer containing 25 mM HEPES, pH 7.5, 150 mM NaCl, and 0.5 mM TCEP. […] Protein unfolding profiles were recorded using an MX3005P real-time qPCR instrument (Agilent; excitation/emission filters = 492/610 nm) while increasing the temperature from 25 to 95 °C at a heating rate of 3 °C/min. Tm values were calculated after fitting the fluorescence curves to the Boltzmann equation. Differences in melting temperature upon compound binding are given as ΔTm = Tm (protein with inhibitor) – Tm (protein with DMSO control). Measurements were performed in triplicates.

[5] = target: T2, BRD7 (Homo sapiens, UniProt Q9NPI1); assay: DSF bromodomain selectivity panel; assay type: binding; details: 10 μM compound
T2 construct: purchased in-house (SGC Frankfurt recombinant bromodomain DSF panel)
Protocol: as §2

[6] = test system: SP100; assay: DSF bromodomain selectivity panel; assay type: binding; details: 10 μM compound
Protocol: as §2

[7] = target: T3, TAF1LA (2) (Homo sapiens, UniProt Q8IZX4); assay: DSF bromodomain selectivity panel; assay type: binding; details: 10 μM compound
T3 construct: TAF1LA (2); purchased in-house (SGC Frankfurt recombinant bromodomain DSF panel)
Protocol: as §2

[8] = target: T4, PB1A(4) (Homo sapiens, UniProt Q86U86); assay: DSF bromodomain selectivity panel; assay type: binding; details: 10 μM compound
T4 construct: PB1A(4); purchased in-house (SGC Frankfurt recombinant bromodomain DSF panel)
Protocol: as §2

[9] = target: T5, TRIM28 (Homo sapiens, UniProt Q13263); assay: DSF bromodomain selectivity panel; assay type: binding; details: 10 μM compound, construct containing tandem PHD-BD
T5 construct: purchased in-house (SGC Frankfurt recombinant bromodomain DSF panel)
Protocol: as §2

[10] = target: T6, SMARCA2A (Homo sapiens, UniProt P51531); assay: DSF bromodomain selectivity panel; assay type: binding; details: 10 μM compound
T6 construct: purchased in-house (SGC Frankfurt recombinant bromodomain DSF panel)
Protocol: as §2

[11] = target: T7, PB1A(5) (Homo sapiens, UniProt Q86U86); assay: DSF bromodomain selectivity panel; assay type: binding; details: 10 μM compound
T7 construct: PB1A(5); purchased in-house (SGC Frankfurt recombinant bromodomain DSF panel)
Protocol: as §2

[12] = target: T8, TAF1 (2) (Homo sapiens, UniProt P21675); assay: DSF bromodomain selectivity panel; assay type: binding; details: 10 μM compound
T8 construct: TAF1 (2); purchased in-house (SGC Frankfurt recombinant bromodomain DSF panel)
Protocol: as §2

T2 sequence (Q9NPI1 whole entry): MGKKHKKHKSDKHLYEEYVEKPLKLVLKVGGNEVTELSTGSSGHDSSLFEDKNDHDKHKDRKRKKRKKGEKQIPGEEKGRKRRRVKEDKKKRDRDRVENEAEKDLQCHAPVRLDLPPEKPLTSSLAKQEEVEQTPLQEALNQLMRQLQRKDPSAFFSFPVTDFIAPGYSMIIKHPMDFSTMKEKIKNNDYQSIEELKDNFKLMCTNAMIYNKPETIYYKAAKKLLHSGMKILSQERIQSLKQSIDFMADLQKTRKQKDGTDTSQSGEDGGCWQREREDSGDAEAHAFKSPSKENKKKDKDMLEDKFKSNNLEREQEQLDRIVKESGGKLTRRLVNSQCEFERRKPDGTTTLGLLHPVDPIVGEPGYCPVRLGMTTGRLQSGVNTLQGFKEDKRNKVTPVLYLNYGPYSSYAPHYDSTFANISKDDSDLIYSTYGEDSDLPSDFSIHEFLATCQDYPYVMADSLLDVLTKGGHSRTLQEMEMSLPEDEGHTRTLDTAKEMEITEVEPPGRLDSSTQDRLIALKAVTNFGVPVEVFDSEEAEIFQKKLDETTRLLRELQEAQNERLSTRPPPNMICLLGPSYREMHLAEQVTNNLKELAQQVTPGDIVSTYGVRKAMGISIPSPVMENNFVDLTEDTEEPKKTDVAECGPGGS
T3 sequence (Q8IZX4 1523-1654 limits assumed): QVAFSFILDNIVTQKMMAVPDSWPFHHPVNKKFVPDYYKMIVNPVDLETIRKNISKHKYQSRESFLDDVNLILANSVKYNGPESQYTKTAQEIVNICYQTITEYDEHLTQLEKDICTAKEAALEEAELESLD
T1 sequence (Q15059 306-416 limits assumed): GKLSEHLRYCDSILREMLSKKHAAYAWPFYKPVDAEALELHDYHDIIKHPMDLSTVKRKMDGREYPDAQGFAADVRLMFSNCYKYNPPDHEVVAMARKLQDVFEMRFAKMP
T4 sequence (Q86U86 496-637 limits assumed): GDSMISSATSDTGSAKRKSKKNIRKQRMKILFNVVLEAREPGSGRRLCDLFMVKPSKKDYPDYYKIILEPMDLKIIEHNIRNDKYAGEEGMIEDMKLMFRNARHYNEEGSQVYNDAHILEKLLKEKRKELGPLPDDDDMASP
T5 sequence (Q13263 whole entry): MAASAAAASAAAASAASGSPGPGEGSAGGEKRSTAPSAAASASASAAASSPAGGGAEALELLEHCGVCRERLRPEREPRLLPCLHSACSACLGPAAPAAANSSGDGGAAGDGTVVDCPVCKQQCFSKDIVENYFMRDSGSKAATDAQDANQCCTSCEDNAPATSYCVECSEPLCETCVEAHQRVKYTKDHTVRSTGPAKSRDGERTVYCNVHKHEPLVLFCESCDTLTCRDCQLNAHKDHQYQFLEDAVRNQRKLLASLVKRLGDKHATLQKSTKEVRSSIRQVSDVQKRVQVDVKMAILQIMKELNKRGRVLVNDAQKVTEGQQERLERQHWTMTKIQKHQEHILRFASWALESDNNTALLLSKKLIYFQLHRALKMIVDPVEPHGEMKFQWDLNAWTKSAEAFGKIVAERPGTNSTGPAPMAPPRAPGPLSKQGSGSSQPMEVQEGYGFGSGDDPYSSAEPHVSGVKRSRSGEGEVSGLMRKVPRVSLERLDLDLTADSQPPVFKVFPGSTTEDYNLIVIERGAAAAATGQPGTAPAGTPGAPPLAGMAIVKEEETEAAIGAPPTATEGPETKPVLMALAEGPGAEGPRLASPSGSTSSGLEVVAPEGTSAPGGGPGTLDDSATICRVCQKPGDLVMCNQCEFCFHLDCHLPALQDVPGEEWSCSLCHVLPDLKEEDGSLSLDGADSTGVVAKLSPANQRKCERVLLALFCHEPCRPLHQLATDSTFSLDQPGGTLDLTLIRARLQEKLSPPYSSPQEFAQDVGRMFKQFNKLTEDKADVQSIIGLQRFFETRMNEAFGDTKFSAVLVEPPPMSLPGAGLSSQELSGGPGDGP
T8 sequence (P21675 1522-1656 limits assumed): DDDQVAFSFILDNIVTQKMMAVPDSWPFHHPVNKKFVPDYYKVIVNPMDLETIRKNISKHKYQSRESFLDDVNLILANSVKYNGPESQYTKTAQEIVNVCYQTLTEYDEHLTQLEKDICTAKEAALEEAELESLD
T7 sequence (Q86U86 645-766 limits assumed): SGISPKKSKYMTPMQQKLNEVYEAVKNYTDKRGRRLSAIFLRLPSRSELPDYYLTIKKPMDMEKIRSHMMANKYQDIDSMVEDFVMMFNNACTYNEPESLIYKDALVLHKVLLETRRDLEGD
T6 sequence (P51531 whole entry): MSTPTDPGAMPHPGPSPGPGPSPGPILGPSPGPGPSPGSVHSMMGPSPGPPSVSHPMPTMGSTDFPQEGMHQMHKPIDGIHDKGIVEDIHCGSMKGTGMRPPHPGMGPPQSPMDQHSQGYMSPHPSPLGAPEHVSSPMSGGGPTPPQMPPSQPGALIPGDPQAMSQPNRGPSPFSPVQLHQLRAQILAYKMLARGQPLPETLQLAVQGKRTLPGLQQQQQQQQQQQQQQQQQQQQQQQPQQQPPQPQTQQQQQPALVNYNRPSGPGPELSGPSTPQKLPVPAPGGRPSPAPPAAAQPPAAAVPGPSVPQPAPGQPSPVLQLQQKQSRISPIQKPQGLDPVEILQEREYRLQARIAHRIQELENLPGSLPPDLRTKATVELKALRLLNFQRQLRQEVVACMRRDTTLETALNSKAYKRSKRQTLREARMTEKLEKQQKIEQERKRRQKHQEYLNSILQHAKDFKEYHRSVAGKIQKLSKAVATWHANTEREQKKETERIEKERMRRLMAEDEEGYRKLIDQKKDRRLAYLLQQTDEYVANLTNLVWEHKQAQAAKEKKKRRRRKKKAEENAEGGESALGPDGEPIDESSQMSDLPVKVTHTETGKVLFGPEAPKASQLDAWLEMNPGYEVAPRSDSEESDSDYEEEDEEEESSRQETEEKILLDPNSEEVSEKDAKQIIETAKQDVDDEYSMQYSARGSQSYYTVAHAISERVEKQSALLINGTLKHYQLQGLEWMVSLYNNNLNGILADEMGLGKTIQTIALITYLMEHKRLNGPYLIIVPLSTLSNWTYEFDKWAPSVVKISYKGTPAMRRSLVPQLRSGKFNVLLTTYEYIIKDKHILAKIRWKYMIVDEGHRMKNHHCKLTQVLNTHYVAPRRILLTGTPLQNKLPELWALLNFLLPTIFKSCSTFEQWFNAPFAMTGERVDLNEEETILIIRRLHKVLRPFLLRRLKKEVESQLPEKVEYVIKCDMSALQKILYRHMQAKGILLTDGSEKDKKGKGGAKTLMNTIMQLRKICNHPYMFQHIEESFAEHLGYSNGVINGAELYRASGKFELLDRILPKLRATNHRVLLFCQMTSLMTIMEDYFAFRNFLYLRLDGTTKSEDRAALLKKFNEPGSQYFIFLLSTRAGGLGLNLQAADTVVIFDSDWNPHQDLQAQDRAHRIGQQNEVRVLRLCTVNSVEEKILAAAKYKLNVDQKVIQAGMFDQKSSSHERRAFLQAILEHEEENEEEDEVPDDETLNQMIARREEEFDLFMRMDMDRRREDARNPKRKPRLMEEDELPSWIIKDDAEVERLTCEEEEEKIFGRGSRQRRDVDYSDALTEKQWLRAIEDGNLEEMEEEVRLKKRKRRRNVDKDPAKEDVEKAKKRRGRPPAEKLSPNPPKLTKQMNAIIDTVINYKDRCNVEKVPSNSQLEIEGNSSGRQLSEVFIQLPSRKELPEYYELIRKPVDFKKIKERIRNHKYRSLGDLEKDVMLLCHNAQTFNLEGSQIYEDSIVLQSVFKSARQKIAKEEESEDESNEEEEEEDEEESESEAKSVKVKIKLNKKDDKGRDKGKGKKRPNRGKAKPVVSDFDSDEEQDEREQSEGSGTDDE

Cn1cc(-c2ccc(C(=O)Nc3ccccc3N)nc2)c2cc[nH]c2c1=O [NB500]
TP63 mRNA levels [1]: strongest effect | MYC mRNA levels [2]: strongest effect

Cn1cc(-c2ccc(C(=O)Nc3cc(-c4ccccc4)ccc3N)nc2)c2cc[nH]c2c1=O [NB512]
EC50 ([3]; intact and permeabilized cells, read-out: NanoBRET EC50 both BRD4 bromodomains): 100 to 400 nM

Cn1cc(-c2ccc(C(=O)Nc3cc(-c4ccccc4)ccc3N)cc2)c2cc[nH]c2c1=O [NB503]
TP63 mRNA levels [1]: strongest effect | MYC mRNA levels [2]: strongest effect | Mean Tm BRD3 (2) [4]: 4.6 ± 0.7 K | Mean Tm BRD7 [5]: 1.1 ± 0.2 K | Mean Tm SP100 [6]: 0.4 ± 0.1 K | Mean Tm TAF1LA (2) [7]: 1.2 ± 0.0 K | Mean Tm PB1A(4) [8]: 1.0 ± 0.6 K | Mean Tm TRIM28 [9]: 0.0 ± 0.2 K | Mean Tm SMARCA2A [10]: 1.2 ± 0.5 K | Mean Tm PB1A(5) [11]: 1.1 ± 0.2 K | Mean Tm TAF1 (2) [12]: 1.7 ± 0.1 K

Cn1cc(-c2ccc(C(=O)Nc3ccccc3N)cc2)c2cc[nH]c2c1=O [NB462]
EC50 ([3]; BD1 and BD2, intact cells, read-out: NanoBRET EC50 BRD4 bromodomains): 100 to 400 nM | Mean Tm BRD3 (2) [4]: 6.1 ± 0.0 K | Mean Tm BRD7 [5]: 5.6 ± 0.3 K | Mean Tm SP100 [6]: -0.2 ± 0.1 K | Mean Tm TAF1LA (2) [7]: 1.7 ± 0.1 K | Mean Tm PB1A(4) [8]: 0.1 ± 0.1 K | Mean Tm TRIM28 [9]: 0.6 ± 0.4 K | Mean Tm SMARCA2A [10]: -0.1 ± 0.1 K | Mean Tm PB1A(5) [11]: 0.0 ± 0.1 K | Mean Tm TAF1 (2) [12]: 1.3 ± 0.0 K
